{
  "source": "patent US20250144110A1",
  "about": "“COMPOSITIONS OF AUTOPHAGY MODULATING AGENTS AND USES THEREOF” (Washington University, priority 2022, published 2025)",
  "key": {"[1]": {"assay": "Liver microsomal stability, mouse", "type": "in vitro ADME", "conditions": "mouse liver microsomes; read-out: LM stability Mouse t ½", "from_the_text": "(§1) As described herein, continued lead optimization afforded potent quinolones."}, "[2]": {"assay": "Liver microsomal stability, human", "type": "in vitro ADME", "conditions": "human liver microsomes; read-out: LM stability Human t ½", "from_the_text": "as §1"}, "p62/SQSTM1 in HD-MSNs": {"system": "p62/SQSTM1 in HD-MSNs", "assay": "p62 immunoblot in HD-MSNs", "type": "cell-based, human", "conditions": "0.5 μM, PID26, vs DMSO", "protocol": "(§2) FIG. 1A-FIG. 1E is an exemplary embodiment showing autophagy activator rescues HD-MSNs from degeneration in accordance with the present disclosure. FIG. 1A depicts the chemical structure of Ex 3. FIG. 1B includes a representative immunoblot (left) for steady state levels of α1-antitrypsin Z variant (ATZ) and β-actin in the HTO/Z cell line model of α1-antitrypsin deficiency after 24 hr treatment with DMSO alone or Ex 3 in DMSO at 0.5 and 2.5 μM and a bar graph showing the normalized intensity (right) calculated from immunoblot images for 0.5 μM versus DMSO control (Individual data plotted, n=4 biological replicates; *p=0.003 by t-test; mean+/−s.e.m). FIG. 1C includes an immunoblot for p62 and GAPDH in HD-MSNs treated with DMSO or 0.5 μM Ex 3 at PID26 (left) and a bar graph showing intensity values were normalized by GAPDH intensities and the relative fold change over DMSO condition was calculated from immunoblot images of three independent HD-MSN lines (right). Each dot represents reprogrammed MSNs from three independent HD-MSN lines. […] FIG. 1E includes example photographs (top) of HD-MSNs treated with DMSO or 0.5 μM Ex 3 (PID 30) expressing the tandem monomeric RFP-GFP-LC3 reporter and a bar graph (bottom) showing quantification of autophagosome (i.e., RFP+, GFP+ puncta) and autolysosome (i.e., RFP+, GFP− puncta) compartments from three independent HD-MSNs. […]"}, "HD-MSNs [3]": {"system": "HD-MSNs", "assay": "Autophagic vacuoles by CYTO-ID green in HD-MSNs", "type": "cell-based, human", "conditions": "0.5 μM, PID26, vs DMSO", "protocol": "as §2"}, "[4]": {"system": "HD-MSNs expressing the RFP-GFP-LC3 reporter", "assay": "Tandem RFP-GFP-LC3 reporter in HD-MSNs", "type": "cell-based, human", "conditions": "0.5 μM, PID30, vs DMSO", "protocol": "as §2"}, "HD-MSNs [5]": {"system": "HD-MSNs", "assay": "HD-MSN death (SYTOX assay); survival of striatal neurons", "type": "cell-based, human", "conditions": "treated from PID14 every four days for 16 days", "protocol": "as §2"}, "HD-MSNs [6]": {"system": "HD-MSNs", "assay": "Caspase 3/7 activation and Annexin V signal in HD-MSNs", "type": "cell-based, human", "conditions": "HD-MSNs at PID30; 0.125, 0.25 or 0.5 uM", "protocol": "as §2"}, "[7]": {"system": "mHTT inclusion bodies in HD-MSNs", "assay": "HTT inclusion bodies in HD-MSNs", "type": "cell-based, human", "conditions": "0.5 μM, PID30, vs DMSO", "protocol": "as §2"}},
  "data": [
    {"compound": "O=c1ccc2c(C(F)(F)F)c(-c3ccc(Cl)cn3)ccc2[nH]1", "note": "[Ex 97, 6-(5-chloropyridin-2-yl)-5-(trifluoromethyl) quinolin-2 (1H)-one]", "values": [
      {"measurement": "half-life", "setting": "[1]", "result": "> 2.42", "unit": "h"},
      {"measurement": "half-life", "setting": "[2]", "result": "> 2.42", "unit": "h"}
    ]},
    {"compound": "O=c1ccc2c(Cl)cc(Cl)cc2[nH]1", "note": "[Ex 3, 5,7-dichloro-1H-quinolin-2-one]", "values": [
      {"measurement": "half-life", "setting": "[1]", "result": 0.07, "unit": "h"},
      {"measurement": "p62/SQSTM1 protein levels", "setting": "p62/SQSTM1 in HD-MSNs", "result": "decreased p62/SQSTM1 protein levels"},
      {"measurement": "number of autophagic vacuoles (CYTO-ID signals)", "setting": "HD-MSNs [3]", "result": "increased the number of autophagic vacuoles"},
      {"measurement": "average number of autophagosomes and autolysosomes", "setting": "[4]", "result": "increased the average number of autophagosomes and autolysosomes"},
      {"measurement": "HD-MSN death (SYTOX-positive cells)", "setting": "HD-MSNs [5]", "result": "significant reduction in HD-MSN death in a dose-dependent manner"},
      {"measurement": "Annexin V signal", "setting": "HD-MSNs [6]", "result": "significant reduction"},
      {"measurement": "activated Caspase 3/7 signal", "setting": "HD-MSNs [6]", "result": "significant reduction"},
      {"measurement": "number of mHTT inclusion bodies", "setting": "[7]", "result": "reduced the number of mHTT inclusion bodies"}
    ]}
  ]
}
